Source: patent US20060189645A1, “Novel 6-phenylphenantridines” (Altana Pharma AG, priority 2003, published 2006)

Tests used:
PDE4 = experiment: Inhibition of PDE4 activity ([3H]cAMP hydrolysis, cytosol from human neutrophils); type: biochemical; conditions: 0.5 μM cAMP, Motapizone 1 μM to suppress PDE3, 15 min at 37° C.
Method: Method for Measuring Inhibition of PDE4 Activity
PDE4 activity was determined as described by Thompson et al. (Adv Cycl Nucl Res 10: 69-92, 1979) with some modifications (Bauer and Schwabe, Naunyn-Schmiedeberg's Arch Pharmacol 311: 193-198, 1980). At a final assay volume of 200 μl (96 well microtiter plates) the assay mixture contained 20 mM Tris (pH 7.4), 5 mM MgCl2, 0.5 μM cAMP, [^3H]cAMP (about 30,000 cpm/assay), the test compound and an aliquot of cytosol from human neutrophils which mainly contains PDE4 activity as described by Schudt et al. (Naunyn-Schmiedeberg's Arch Pharmacol 344: 682-690, 1991); the PDE3-specific inhibitor Motapizone (1 μM) was included to suppress PDE3 activity originating from contaminating platelets. Serial dilutions of the compounds were prepared in DMSO and further diluted 1:100 (v/v) in the assays to obtain the desired final concentrations of the inhibitors at a DMSO concentration of 1% (v/v) which by itself only slightly affected PDE4 activity.
After preincubation for 5 min at 37° C., the reaction was started by the addition of substrate (cAMP) and the assays were incubated for further 15 min at 37° C. 50 μl of 0.2 N HCl was added to stop the reaction and the assays were left on ice for about 10 min. Following incubation with 25 μg 5′-nucleotidase (Crotalus atrox snake venom) for 10 min at 37° C., the assays were loaded on QAE Sephadex A-25 (1 ml bed volume). The columns were eluted with 2 ml of 30 mM ammonium formiate (pH 6.0) and the eluate was counted for radioactivity. Results were corrected for blank values (measured in the presence of denatured protein) which were below 5% of total radioactivity. […] The IC50-values for the compounds according to the invention for the inhibition of the PDE4 activity were determined from the concentration-inhibition curves by nonlinear-regression.

| Inhibition of the PDE4 activity, −log IC50 (PDE4) | melting point [°C] | SMILES |
| --- | --- | --- |
| 8.75 | – | COc1cc2c(cc1OC)C1CCCCC1N=C2c1cccc(C(C)=NNC(N)=O)c1 (centres unmarked) [Compound 37, 1-[3-((4aR10bR)-8,9-Dimethoxy-1,2,3,4,4a,10b-hexahydro-phenanthridin-6-yl)-phenyl]-ethanone-semicarbazone] |
| 8.64 | – | COc1cc2c(cc1OC)[C@H]1CCCC[C@H]1N=C2c1ccc(C(C)=NNC(N)=O)cc1 [Compound 6, 1-[4-((4aR,10bR)-8,9-Dimethoxy-1,2,3,4,4a,10b-hexahydro-phenanthridin-6-yl)-phenyl]-ethanone-semicarbazone] |
| 8.71 | – | COc1cc2c(cc1OC)[C@H]1CCCC[C@H]1N=C2c1ccc(C(C)=NNC(=O)c2ccncc2)cc1 [Compound 3, Isonicotinic acid {1-[4-((4aR,10bR)-8,9-dimethoxy-1,2,3,4,4a,10b-hexahydro-phenanthridin-6-yl)-phenyl]-ethylidene}-hydrazide] |
| 8.61 | – | COc1cc2c(cc1OC)[C@H]1CCCC[C@H]1N=C2c1ccc(C(C)=NNC(=O)CC#N)cc1 [Compound 2, Cyano-acetic acid {1-[4-((4aR,10bR)-8,9-dimethoxy-1,2,3,4,4a,10b-hexahydro-phenanthridin-6-yl)-phenyl]-ethylidene}-hydrazide] |
| 9.38 | – | COc1cc2c(cc1OC)[C@H]1CCCC[C@H]1N=C2c1ccc(C(=NNC(N)=O)c2ccccc2)cc1 [Compound 7, 1-[4-((4aR,10bR)-8,9-Dimethoxy-1,2,3,4,4a,10b-hexahydro-phenanthridin-6-yl)-phenyl]-1-phenyl-methanone-semicarbazone] |
| 8.62 | 162 | COc1cc2c(cc1OC)[C@H]1CCCC[C@H]1N=C2c1ccc(C(C)=NNC(=O)c2cccnc2)cc1 [Compound 1, Nicotinic acid {1-[4-((4aR,10bR)-8,9-dimethoxy-1,2,3,4,4a,10b-hexahydro-phenanthridin-6-yl)-phenyl]-ethylidene}-hydrazide] |
| 8.95 | – | COc1cc2c(cc1OC)[C@H]1CCCC[C@H]1N=C2c1ccc(C(C)=NNC(C)=O)cc1 [Compound 4, Acetic acid {1-[4-((4aR,10bR)-8,9-dimethoxy-1,2,3,4,4a,10b-hexahydro-phenanthridin-6-yl)-phenyl]-ethylidene}-hydrazide] |
